The subject of experiment [1] is Aptamer 2 (Apt2) (RNA, aptamer) UCGCGUCUAGCCCAUUGAUAGGCCCGA
The experiment can be described thus: electrochemical impedance (EIS). The note with it: 0.1 M KCl, 3 mM MgCl2; 100 µM; response about 15 times lower than with NH4+.

Experiment [2] has as its system Aptamer 1 (Apt1) (RNA, aptamer) CCAUGUAAGCGCGGUACUCUUACGUGA
The experiment can be described thus: electrochemical impedance (EIS). The note with it: 0.1 M KCl, 3 mM MgCl2; 100 µM; response about 15 times lower than with NH4+.

The test system of experiment [3] is Aptamer 3 (Apt3) (RNA, aptamer) UCCACGUGGUGCCAUACUCCGGCGUGG
The experiment can be described thus: electrochemical impedance (EIS). The note with it: 0.1 M KCl, 3 mM MgCl2; 100 µM; response about 15 times lower than with NH4+.

Experiment [4] deals with Control (random sequence) (RNA, other) CUGAAGGCAGUCCGGUGCCCGGCCGGG
Kind of experiment: electrochemical impedance (EIS). The note with it: 0.1 M KCl, 3 mM MgCl2; PBS, pH about 7, 15 min incubation; tested up to 500 mM.

Experiment [5] concerns Aptamer 2 (Apt2) (RNA, aptamer) UCGCGUCUAGCCCAUUGAUAGGCCCGA
Kind of experiment: electrochemical impedance (EIS), Langmuir-Hill fit. The note with it: 0.1 M KCl, 3 mM MgCl2; PBS, pH about 7, 1 mM [Fe(CN)6]3-/4-, 15 min incubation.

The test system of experiment [6] is Aptamer 5 (Apt5) (RNA, aptamer) GCCCUGGGCCGCUCAUUCCCUCUGGCU
Kind of experiment: electrochemical impedance (EIS), Langmuir-Hill fit. Particulars: 0.1 M KCl, 3 mM MgCl2; PBS, pH about 7, 1 mM [Fe(CN)6]3-/4-, 15 min incubation.

The subject of experiment [7] is Aptamer 4 (Apt4) (RNA, aptamer) CCUCUCAGGCUUGUACUGCCACGAGGA
Kind of experiment: electrochemical impedance (EIS), Langmuir-Hill fit. Particulars: 0.1 M KCl, 3 mM MgCl2; PBS, pH about 7, 1 mM [Fe(CN)6]3-/4-, 15 min incubation; decimal comma as printed.

Experiment [8] has as its system Aptamer 3 (Apt3) (RNA, aptamer) UCCACGUGGUGCCAUACUCCGGCGUGG
The experiment can be described thus: electrochemical impedance (EIS), Langmuir-Hill fit. The note with it: 0.1 M KCl, 3 mM MgCl2; PBS, pH about 7, 1 mM [Fe(CN)6]3-/4-, 15 min incubation.

Experiment [9] has as its system Aptamer 1 (Apt1) (RNA, aptamer) CCAUGUAAGCGCGGUACUCUUACGUGA
The experiment can be described thus: electrochemical impedance (EIS), Langmuir-Hill fit. Particulars: 0.1 M KCl, 3 mM MgCl2; PBS, pH about 7, 1 mM [Fe(CN)6]3-/4-, 15 min incubation.

Structures are written as SMILES.

Consider `CN(C)C`, for which the binding result in experiment [1], in experiment [2] and in [3] was “weak” in each case.
As to `CNC`, the binding result in [1], in experiment [2] and in experiment [3] was “weak” in each case.
What is called Kd is the constant that tells how readily two partners part at equilibrium. A higher Kd goes with a looser complex. On to `N`, for which the binding entry in experiment [4] is given as “no”. In addition, the Kd in experiment [5] was 16.11 mM; in experiment [6], 50 mM; in experiment [7], 6,6 mM; in [8] it was 131 mM; in [9], 36.59 mM.

The values above are taken from article PMC9405846 (2022).
